Laboratory results from ChEMBL document CHEMBL4270599, “Synthesis of a 3'-C-ethynyl-β-d-ribofuranose purine nucleoside library: Discovery of C7-deazapurine analogs as potent antiproliferative nucleosides” (Eur J Med Chem, 2018).

Experiments:
Type in all cases: functional
A498 [1] = experiment: Cytotoxicity against human A498 cells after 48 hrs by SRB assay; settings: A498, 48 h
SK-MEL-2 = experiment: Growth inhibition of human SK-MEL-2 cells assessed as cell growth at 10^-8 M incubated for 48 hrs by sulforhodamine B assay relative to control; settings: SK-MEL-2, 48 h, read-out: Activity
SK-MEL-28 = experiment: Growth inhibition of human SK-MEL-28 cells assessed as cell growth at 10^-8 M incubated for 48 hrs by sulforhodamine B assay relative to control; settings: SK-MEL-28, 48 h, read-out: Activity
OVCAR-3 [2] = experiment: Growth inhibition of human OVCAR3 cells assessed as cell growth at 10^-8 M incubated for 48 hrs by sulforhodamine B assay relative to control; settings: OVCAR-3, 48 h, read-out: Activity
PC-3 = experiment: Growth inhibition of human PC3 cells assessed as cell growth at 10^-8 M incubated for 48 hrs by sulforhodamine B assay relative to control; settings: PC-3, 48 h, read-out: Activity
NCI-H522 [3] = experiment: Growth inhibition of human NCI-H522 cells assessed as cell growth at 10^-6 M incubated for 48 hrs by sulforhodamine B assay relative to control; settings: NCI-H522, 48 h, read-out: Activity
IGROV-1 [4] = experiment: Growth inhibition of human IGROV1 cells assessed as cell growth at 10^-6 M incubated for 48 hrs by sulforhodamine B assay relative to control; settings: IGROV-1, 48 h, read-out: Activity
SK-OV-3 = experiment: Growth inhibition of human SKOV3 cells assessed as cell growth at 10^-6 M incubated for 48 hrs by sulforhodamine B assay relative to control; settings: SK-OV-3, 48 h, read-out: Activity
MDA-MB-468 = experiment: Growth inhibition of human MDA-MB-468 cells assessed as cell growth at 10^-6 M incubated for 48 hrs by sulforhodamine B assay relative to control; settings: MDA-MB-468, 48 h, read-out: Activity
RPMI-8226 = experiment: Growth inhibition of human RPMI8226 cells assessed as cell growth at 10^-5 M incubated for 48 hrs by sulforhodamine B assay relative to control; settings: RPMI-8226, 48 h, read-out: Activity
A549 = experiment: Growth inhibition of human A549/ATCC cells assessed as cell growth at 10^-5 M incubated for 48 hrs by sulforhodamine B assay relative to control; settings: A549, 48 h, read-out: Activity
HOP-62 = experiment: Growth inhibition of human HOP62 cells assessed as cell growth at 10^-5 M incubated for 48 hrs by sulforhodamine B assay relative to control; settings: HOP-62, 48 h, read-out: Activity
NCI-H522 [5] = experiment: Growth inhibition of human NCI-H522 cells assessed as cell growth at 10^-5 M incubated for 48 hrs by sulforhodamine B assay relative to control; settings: NCI-H522, 48 h, read-out: Activity
HCC 2998 = experiment: Growth inhibition of human HCC2998 cells assessed as cell growth at 10^-5 M incubated for 48 hrs by sulforhodamine B assay relative to control; settings: HCC 2998, 48 h, read-out: Activity
HT-29 = experiment: Growth inhibition of human HT-29 cells assessed as cell growth at 10^-5 M incubated for 48 hrs by sulforhodamine B assay relative to control; settings: HT-29, 48 h, read-out: Activity
SF-539 [6] = experiment: Growth inhibition of human SF539 cells assessed as cell growth at 10^-5 M incubated for 48 hrs by sulforhodamine B assay relative to control; settings: SF-539, 48 h, read-out: Activity
LOX IMVI = experiment: Growth inhibition of human LOXIMVI cells assessed as cell growth at 10^-5 M incubated for 48 hrs by sulforhodamine B assay relative to control; settings: read-out: Activity
IGROV-1 [7] = experiment: Growth inhibition of human IGROV1 cells assessed as cell growth at 10^-5 M incubated for 48 hrs by sulforhodamine B assay relative to control; settings: IGROV-1, 48 h, read-out: Activity
OVCAR-3 [8] = experiment: Growth inhibition of human OVCAR3 cells assessed as cell growth at 10^-5 M incubated for 48 hrs by sulforhodamine B assay relative to control; settings: OVCAR-3, 48 h, read-out: Activity
786-0 = experiment: Growth inhibition of human 786-0 cells assessed as cell growth at 10^-5 M incubated for 48 hrs by sulforhodamine B assay relative to control; settings: 786-0, 48 h, read-out: Activity
A498 [9] = experiment: Growth inhibition of human A498 cells assessed as cell growth at 10^-5 M incubated for 48 hrs by sulforhodamine B assay relative to control; settings: A498, 48 h, read-out: Activity
RXF 393 = experiment: Growth inhibition of human RXF393 cells assessed as cell growth at 10^-5 M incubated for 48 hrs by sulforhodamine B assay relative to control; settings: RXF 393, 48 h, read-out: Activity
NCI-H23 = experiment: Growth inhibition of human NCI-H23 cells assessed as cell growth at 10^-4 M incubated for 48 hrs by sulforhodamine B assay relative to control; settings: NCI-H23, 48 h, read-out: Activity
NCI-H322M = experiment: Growth inhibition of human NCI-H322M cells assessed as cell growth at 10^-4 M incubated for 48 hrs by sulforhodamine B assay relative to control; settings: read-out: Activity
NCI-H522 [10] = experiment: Growth inhibition of human NCI-H522 cells assessed as cell growth at 10^-4 M incubated for 48 hrs by sulforhodamine B assay relative to control; settings: NCI-H522, 48 h, read-out: Activity
COLO 205 = experiment: Growth inhibition of human COLO205 cells assessed as cell growth at 10^-4 M incubated for 48 hrs by sulforhodamine B assay relative to control; settings: COLO 205, 48 h, read-out: Activity
SF-295 [11] = experiment: Growth inhibition of human SF295 cells assessed as cell growth at 10^-4 M incubated for 48 hrs by sulforhodamine B assay relative to control; settings: SF-295, 48 h, read-out: Activity
SF-539 [12] = experiment: Growth inhibition of human SF539 cells assessed as cell growth at 10^-4 M incubated for 48 hrs by sulforhodamine B assay relative to control; settings: SF-539, 48 h, read-out: Activity
SK-MEL-5 = experiment: Growth inhibition of human SK-MEL-5 cells assessed as cell growth at 10^-4 M incubated for 48 hrs by sulforhodamine B assay relative to control; settings: SK-MEL-5, 48 h, read-out: Activity
OVCAR-8 = experiment: Growth inhibition of human OVCAR8 cells assessed as cell growth at 10^-4 M incubated for 48 hrs by sulforhodamine B assay relative to control; settings: OVCAR-8, 48 h, read-out: Activity
A498 [13] = experiment: Growth inhibition of human A498 cells assessed as cell growth at 10^-4 M incubated for 48 hrs by sulforhodamine B assay relative to control; settings: A498, 48 h, read-out: Activity
SF-295 [14] = experiment: Growth inhibition of human SF295 cells assessed as cell growth at 10^-5 M incubated for 48 hrs by sulforhodamine B assay relative to control; settings: SF-295, 48 h, read-out: Activity
SF-268 = experiment: Growth inhibition of human SF268 cells assessed as cell growth at 10^-4 M incubated for 48 hrs by sulforhodamine B assay relative to control; settings: SF-268, 48 h, read-out: Activity
[15] = read-out: LC50 (the source's name)

SMILES	TGI (A498 [1]; read-out: TGI)	GI50 (A498 [1]; read-out: pGI50 (converted))	TGI (A498 [1]; read-out: pTGI (converted))	growth at 0.01 µM (SK-MEL-2)	growth at 0.01 µM (SK-MEL-28)	growth at 0.01 µM (OVCAR-3 [2])	growth at 0.01 µM (PC-3)	growth at 1 µM (NCI-H522 [3])	growth at 1 µM (IGROV-1 [4])	growth at 1 µM (SK-OV-3)	growth at 1 µM (MDA-MB-468)	growth at 10 µM (RPMI-8226)	growth at 10 µM (A549)	growth at 10 µM (HOP-62)	growth at 10 µM (NCI-H522 [5])	growth at 10 µM (HCC 2998)	growth at 10 µM (HT-29)	growth at 10 µM (SF-539 [6])	GI50 (A498 [1]; read-out: GI50)	CC50 (A498 [1]; [15])	also measured
C#C[C@@]1(O)[C@@H](CO)O[C@@H](n2cc(F)c3c(N)ncnc32)[C@@H]1O	2270 nM	724 nM	2290 nM	103%	102%	106%	92%	-2%	6%	12%	13%	-2%	-26%	-4%	-24%	-45%	2%	-23%			CC50 (A498 [1]; read-out: pLC50 (the source's name) (converted)): 5.89 µM; growth at 10 µM (LOX IMVI): -78%; growth at 10 µM (IGROV-1 [7]): -33%; growth at 10 µM (OVCAR-3 [8]): 5%; growth at 10 µM (786-0): -52%; growth at 10 µM (A498 [9]): -77%; growth at 10 µM (RXF 393): -46%; growth at 100 µM (NCI-H23): -25%; growth at 100 µM (NCI-H322M): -30%; growth at 100 µM (NCI-H522 [10]): -40%; growth at 100 µM (COLO 205): -63%; growth at 100 µM (SF-295 [11]): -74%; growth at 100 µM (SF-539 [12]): -39%; growth at 100 µM (SK-MEL-5): -93%; growth at 100 µM (OVCAR-8): -27%; growth at 100 µM (A498 [13]): -75%; growth at 10 µM (SF-295 [14]): -69%
C#C[C@@]1(O)[C@@H](CO)O[C@@H](n2cc(Cl)c3c(N)ncnc32)[C@@H]1O	435 to 1000 nM			86 to 95%	94%	97 to 101%	91 to 94%												225 to 334 nM	0.842 to 5.62 µM	
C#C[C@@]1(O)[C@@H](CO)O[C@@H](n2cc(Br)c3c(N)ncnc32)[C@@H]1O	417 to 828 nM			96 to 106%	93 to 96%	99 to 101%	86 to 92%										1 to 3%		185 to 280 nM	0.94 to 4.21 µM	
C#C[C@@]1(O)[C@@H](CO)O[C@@H](n2ccc3c(N)ncnc32)[C@@H]1O	3740 nM	1660 nM	3720 nM	88%	93%	105%	97%	29%	63%	52%	64%	7%	4%	-9%	-21%	-76%		-48%			growth at 10 µM (LOX IMVI): -87%; growth at 10 µM (IGROV-1 [7]): -19%; growth at 10 µM (OVCAR-3 [8]): 3%; growth at 10 µM (786-0): -18%; growth at 10 µM (A498 [9]): -60%; growth at 10 µM (RXF 393): -45%; growth at 100 µM (NCI-H23): -35%; growth at 100 µM (NCI-H322M): -65%; growth at 100 µM (NCI-H522 [10]): -42%; growth at 100 µM (COLO 205): -72%; growth at 100 µM (SF-295 [11]): -44%; growth at 100 µM (SF-539 [12]): -82%; growth at 100 µM (SK-MEL-5): -99%; growth at 100 µM (OVCAR-8): -65%; growth at 100 µM (A498 [13]): -47%; growth at 10 µM (SF-295 [14]): -28%; growth at 100 µM (SF-268): -8%
C#C[C@@]1(O)[C@@H](CO)O[C@@H](n2cc(I)c3c(N)ncnc32)[C@@H]1O	1030 to 1980 nM			84 to 101%	88 to 97%	91 to 98%	81 to 84%												211 to 453 nM	4.69 to 6.4 µM	growth at 100 µM (SF-268): -7%
